Tested on: CCD1079SK cells (fibroblasts from human skin tissue)
Test: Test to evaluate neural stem cell-inducing activity (fluorescent immunostaining of nestin and GFAP in fibroblasts)
Type: cell-based
Conditions: peptide 10 μM, 18 days of culture at 30° C., compared with peptide-free group
Method: Neural stem cells were induced (prepared) from fibroblasts using the neural stem cell-inducing synthetic peptide (Sample 1) obtained in Example 1 above. The test cells were CCD1079SK cells (ATCC™ CRL-2097), a cultured cell line of fibroblasts from human skin tissue. The test details were as follows.
Previously frozen CCD1079SK cells were seeded to a cell density of 1.2×10^5/well in a cell culture chamber (also called a slide chamber). The cell culture chamber had one well per slide (culture area 19 mm×44 mm). Specifically, the thawed CCD1079SK cells were suspended in ordinary Dulbecco's modified Eagle's medium (DMEM) to prepare a cell suspension with a cell density of 1.2×10^5/mL, and 1 mL of this cell suspension was seeded in the aforementioned cell culture chamber. The DMEM medium was ordinary DMEM (Wako Pure Chemical Industries, Ltd., Cat. No. 043-30085) with 10% FBS, 100 units/mL penicillin and 100 μg/mL streptomycin added thereto. The CCD1079SK cells seeded in the cell culture chamber were pre-cultured for several hours (about six hours) until the cells adhered to the bottom of the culture container in the incubator under conditions of 5% CO2, 37° C. […]

## LLLLLLVGLTAPAGKKRTLRKNDRKKR [Sample 1]
Confocal laser microscopy (FIG. 1 vs FIG. 3)
  expression of neural stem cell marker protein nestin (cells with increased quantities of nestin protein): more cells with increased quantities of nestin protein
Confocal laser microscopy (FIG. 2 vs FIG. 4)
  expression of neural stem cell marker protein GFAP (cells with increased quantities of GFAP): more cells with increased quantities of nestin protein and GFAP
